The numbers were not newly measured in patent US4339582A (priority 1981, dated 1982), which cites them from elsewhere.

The conditions of this data set: literature, J. Med. Chem. 18, 1126-30 (1975).

As to `c1ccc(C2CCC3CCCCN3C2)cc1` (stereo not shown), the reported activity result is recorded as “antidepressant activity”.
